Our source for the IC50 values is publication PMC10119128, “Parkinson’s disease-associated ATP13A2/PARK9 functions as a lysosomal H^+,K^+-ATPase” (Nature Communications, 2023).

Test [1] deals with T1, ATP13A2 (Homo sapiens, UniProt Q9NQ11).
T1 construct: full-length, N-terminal Xpress-tag, membrane fractions of transfected HEK293 cells
T1 sequence (Q9NQ11 1-1180): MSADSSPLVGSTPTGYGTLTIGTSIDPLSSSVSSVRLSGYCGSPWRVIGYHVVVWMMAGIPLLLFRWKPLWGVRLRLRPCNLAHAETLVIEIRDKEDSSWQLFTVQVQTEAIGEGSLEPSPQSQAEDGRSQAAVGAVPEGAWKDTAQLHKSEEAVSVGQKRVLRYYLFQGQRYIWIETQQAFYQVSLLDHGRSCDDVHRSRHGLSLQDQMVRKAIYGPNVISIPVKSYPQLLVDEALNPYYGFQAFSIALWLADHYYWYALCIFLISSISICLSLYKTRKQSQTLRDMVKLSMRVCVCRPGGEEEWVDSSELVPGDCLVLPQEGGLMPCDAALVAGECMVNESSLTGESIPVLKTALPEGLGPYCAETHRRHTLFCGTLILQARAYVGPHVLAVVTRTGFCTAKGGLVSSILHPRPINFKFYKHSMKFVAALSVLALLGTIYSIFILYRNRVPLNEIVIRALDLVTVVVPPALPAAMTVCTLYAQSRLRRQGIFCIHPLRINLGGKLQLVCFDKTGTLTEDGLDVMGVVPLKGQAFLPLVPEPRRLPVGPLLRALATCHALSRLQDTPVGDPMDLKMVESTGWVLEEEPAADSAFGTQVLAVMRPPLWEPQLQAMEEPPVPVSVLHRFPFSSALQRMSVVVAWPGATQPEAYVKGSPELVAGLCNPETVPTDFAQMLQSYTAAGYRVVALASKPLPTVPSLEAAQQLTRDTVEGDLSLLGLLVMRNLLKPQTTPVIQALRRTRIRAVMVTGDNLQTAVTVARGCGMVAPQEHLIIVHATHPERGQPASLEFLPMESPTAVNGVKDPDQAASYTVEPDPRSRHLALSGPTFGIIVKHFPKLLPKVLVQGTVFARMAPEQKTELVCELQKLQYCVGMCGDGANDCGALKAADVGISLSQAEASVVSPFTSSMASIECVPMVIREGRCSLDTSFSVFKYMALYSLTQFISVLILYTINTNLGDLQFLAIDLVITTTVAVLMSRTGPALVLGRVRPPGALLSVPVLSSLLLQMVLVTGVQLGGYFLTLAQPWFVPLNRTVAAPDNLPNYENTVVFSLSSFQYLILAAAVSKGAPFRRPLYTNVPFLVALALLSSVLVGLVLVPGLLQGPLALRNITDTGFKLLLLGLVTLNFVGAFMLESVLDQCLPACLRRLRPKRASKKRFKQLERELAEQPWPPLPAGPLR
Put plainly: ΔTG-sensitive ATPase activity in membrane fractions, mock control; […]+ efflux; siRNA knockdown in SH-SY5Y. The test is classed as biochemical.

Test [2] has as its target T1, ATP13A2. Put plainly: ΔTG-sensitive ATPase activity in membrane fractions, mock control; […]+ efflux. The test is classed as biochemical.

With `Cc1nc2c(OCc3ccccc3)cccn2c1CC#N` [SCH28080], in test [1], the IC50 came out at 1200 nM.

Regarding `CO/C1=C\C(C)=C\[C@@H](C)[C@@H](O)[C@@H](C)C/C(C)=C/C=C/[C@H](OC)[C@@H]([C@@H](C)[C@@H](O)[C@H](C)[C@@]2(O)C[C@@H](O)[C@H](C)[C@@H](C(C)C)O2)OC1=O` [bafilomycin A1], in test [2], half-maximal inhibition (IC50) was put at 0.5 nM. This counts as sub-nanomolar.

For the compound `CNCc1cc(-c2ccccc2F)n(S(=O)(=O)c2cccnc2)c1` [vonoprazan], the IC50 in test [1] was 800 nM. In other words, the sub-micromolar range.

As a reminder, the IC50 is the concentration at which inhibition is half-maximal. A low value points to greater potency.
